System: SW 982 tumor spheroid viability
Test: Anticancer human tumor SW 982 cell line growth inhibition;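 further: spheroids exposed to compound for 7 days before readout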
Conditions: spheroids with HUVEC and MSC; for IC50: curve of first compound; for viability, T/C: stronger effect = lower value
Outline: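 Single agents and combinations were tested on spheroids built from tumor cells plus HUVEC and hMSC, at half-log dilutions starting at or near clinical Cmax, else 10 microM; final DMSO 0.25% (v/v).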

[1] = second compound 0.003 µM, first compound 0.0316 µM
[2] = second compound 0.003 µM, first compound 0.1 µM
[3] = second compound 0.003 µM, first compound 0.316 µM
[4] = second compound 0.003 µM, first compound 1 µM
[5] = second compound 0.003 µM, first compound 3.16 µM
[6] = second compound 0.003 µM, first compound 10 µM
[7] = second compound 0.00949 µM, first compound 0.0316 µM
[8] = second compound 0.00949 µM, first compound 0.1 µM
[9] = second compound 0.00949 µM, first compound 0.316 µM
[10] = second compound 0.00949 µM, first compound 1 µM
[11] = second compound 0.00949 µM, first compound 3.16 µM
[12] = second compound 0.00949 µM, first compound 10 µM
[13] = second compound 0.03 µM, first compound 0.0316 µM
[14] = second compound 0.03 µM, first compound 0.1 µM
[15] = second compound 0.03 µM, first compound 0.316 µM
[16] = second compound 0.03 µM, first compound 1 µM
[17] = second compound 0.03 µM, first compound 3.16 µM
[18] = second compound 0.03 µM, first compound 10 µM
[19] = second compound 0.0949 µM, first compound 0.0316 µM
[20] = second compound 0.0949 µM, first compound 0.1 µM
[21] = second compound 0.0949 µM, first compound 0.316 µM
[22] = second compound 0.0949 µM, first compound 1 µM
[23] = second compound 0.0949 µM, first compound 3.16 µM
[24] = second compound 0.0949 µM, first compound 10 µM
[25] = second compound 0.3 µM, first compound 0.0316 µM
[26] = second compound 0.3 µM, first compound 0.1 µM
[27] = second compound 0.3 µM, first compound 0.316 µM
[28] = second compound 0.3 µM, first compound 1 µM
[29] = second compound 0.3 µM, first compound 3.16 µM
[30] = second compound 0.3 µM, first compound 10 µM

Row | Structure (SMILES) | IC50 (second compound 0.003 µM) | IC50 (second compound 0.00949 µM) | IC50 (second compound 0.03 µM) | IC50 (second compound 0.0949 µM) | IC50 (second compound 0.3 µM) | viability, T/C [1] | viability, T/C [2] | viability, T/C [3] | viability, T/C [4] | viability, T/C [5] | viability, T/C [6] | viability, T/C [7] | viability, T/C [8] | viability, T/C [9] | viability, T/C [10] | viability, T/C [11] | viability, T/C [12] | viability, T/C [13] | viability, T/C [14] | viability, T/C [15] | other results
1 | CC(C)n1c(=O)n(C)c2cnc3cc(F)c(-c4ccc(OCCCN5CCCCC5)nc4)cc3c21 + CC[C@@]1(O)C(=O)OCc2c1cc1n(c2=O)Cc2cc3c(CN(C)C)c(O)ccc3nc2-1 | 1570 nM | 1530 nM | 952 nM | 513 nM | 76.8 nM | 80.2% | 77% | 78.9% | 62.5% | 30.2% | 20.3% | 71.6% | 79.7% | 64% | 61.4% | 34.4% | 18.4% | 71.6% | 81% | 59.4% | viability, T/C [16]: 53.6%; viability, T/C [17]: 25.1%; viability, T/C [18]: 17.1%; viability, T/C [19]: 72.6%; viability, T/C [20]: 65.5%; viability, T/C [21]: 58.6%; viability, T/C [22]: 39.3%; viability, T/C [23]: 24.9%; viability, T/C [24]: 15.9%; viability, T/C [25]: 56.4%; viability, T/C [26]: 46.2%; viability, T/C [27]: 40.8%; viability, T/C [28]: 30%; viability, T/C [29]: 18.6%; viability, T/C [30]: 14.5%
2 | CC1COCCN1c1cc(-c2ccnn2C)c2ccnc(-c3ccn[nH]3)c2n1 (stereo not given) + CC[C@@]1(O)C(=O)OCc2c1cc1n(c2=O)Cc2cc3c(CN(C)C)c(O)ccc3nc2-1 | < 31.6 nM | < 31.6 nM | < 31.6 nM | < 31.6 nM | < 31.6 nM | 24.8% | 17.2% | 12.2% | 7.73% | 9.86% | 13.6% | 16.3% | 14.9% | 10.3% | 8.21% | 9.89% | 12.6% | 18.2% | 10.3% | 8.15% | viability, T/C [16]: 7.1%; viability, T/C [17]: 10.2%; viability, T/C [18]: 13.3%; viability, T/C [19]: 12.1%; viability, T/C [20]: 11.4%; viability, T/C [21]: 9.49%; viability, T/C [22]: 8.79%; viability, T/C [23]: 9.28%; viability, T/C [24]: 12%; viability, T/C [25]: 12.1%; viability, T/C [26]: 8.63%; viability, T/C [27]: 7.14%; viability, T/C [28]: 6.54%; viability, T/C [29]: 7.28%; viability, T/C [30]: 7.84%
3 | COc1cc(C)[nH]c(=O)c1CN1CCc2c(Cl)cc(C(OC)C3COC3)c(Cl)c2C1=O (stereo not given) + CC[C@@]1(O)C(=O)OCc2c1cc1n(c2=O)Cc2cc3c(CN(C)C)c(O)ccc3nc2-1 | > 10000 nM | > 10000 nM | > 10000 nM | > 10000 nM | < 31.6 nM | 87.8% | 81.4% | 90.5% | 89.8% | 87.8% | 90.4% | 74.8% | 77.3% | 75.1% | 79.4% | 82.7% | 83% | 77.7% | 66.8% | 70.8% | viability, T/C [16]: 75.8%; viability, T/C [17]: 69%; viability, T/C [18]: 72.5%; viability, T/C [19]: 58.2%; viability, T/C [20]: 56%; viability, T/C [21]: 65%; viability, T/C [22]: 63%; viability, T/C [23]: 66%; viability, T/C [24]: 76.5%; viability, T/C [25]: 49.4%; viability, T/C [26]: 47.2%; viability, T/C [27]: 42.9%; viability, T/C [28]: 41.2%; viability, T/C [29]: 48.2%; viability, T/C [30]: 52.4%
4 | COc1ccc([C@@H](O)c2cc(-c3ncnc4cc(N5CCOCC5)ccc34)c(F)cc2Cl)nn1 + CC[C@@]1(O)C(=O)OCc2c1cc1n(c2=O)Cc2cc3c(CN(C)C)c(O)ccc3nc2-1 | 4470 nM | 2150 nM | 1190 nM | 524 nM | 130 nM | 96.9% | 95.5% | 92.1% | 90.9% | 59.8% | 27.1% | 86.4% | 78.5% | 80.7% | 72.2% | 38.9% | 15% | 73.8% | 76.2% | 70.3% | viability, T/C [16]: 53.9%; viability, T/C [17]: 26.8%; viability, T/C [18]: 12.8%; viability, T/C [19]: 70.6%; viability, T/C [20]: 68.8%; viability, T/C [21]: 60.5%; viability, T/C [22]: 36.6%; viability, T/C [23]: 18.5%; viability, T/C [24]: 12.8%; viability, T/C [25]: 52.2%; viability, T/C [26]: 55.7%; viability, T/C [27]: 40.6%; viability, T/C [28]: 23.2%; viability, T/C [29]: 13.1%; viability, T/C [30]: 10.2%
5 | [2H]c1nc(C)nc([2H])c1-c1cc(NC[C@@H](C)c2cccc3c(C(=O)NC)ccnc23)ncn1 + CC[C@@]1(O)C(=O)OCc2c1cc1n(c2=O)Cc2cc3c(CN(C)C)c(O)ccc3nc2-1 | > 10000 nM | > 10000 nM | > 10000 nM | > 10000 nM | > 10000 nM | 90.1% | 97.5% | 103% | 104% | 101% | 101% | 89.1% | 89.4% | 89.2% | 95.2% | 82.1% | 78% | 77.4% | 78% | 83.7% | viability, T/C [16]: 84.8%; viability, T/C [17]: 95.4%; viability, T/C [18]: 81.8%; viability, T/C [19]: 69.7%; viability, T/C [20]: 72.5%; viability, T/C [21]: 76.5%; viability, T/C [22]: 70.9%; viability, T/C [23]: 84.5%; viability, T/C [24]: 73.5%; viability, T/C [25]: 58.2%; viability, T/C [26]: 55.4%; viability, T/C [27]: 54.3%; viability, T/C [28]: 62.5%; viability, T/C [29]: 45.1%; viability, T/C [30]: 52.1%

Reference: PubChem BioAssay AID1845216 (Molecular Pharmacology Branch, DTP, NCI, 2023)
